For one assay, the target named is T1, human 5-HT1A receptor (Homo sapiens, UniProt P08908).
T1 construct: expressed in transfected cells; host or cells: HEK293-EBNA
T1 sequence (P08908 1-422): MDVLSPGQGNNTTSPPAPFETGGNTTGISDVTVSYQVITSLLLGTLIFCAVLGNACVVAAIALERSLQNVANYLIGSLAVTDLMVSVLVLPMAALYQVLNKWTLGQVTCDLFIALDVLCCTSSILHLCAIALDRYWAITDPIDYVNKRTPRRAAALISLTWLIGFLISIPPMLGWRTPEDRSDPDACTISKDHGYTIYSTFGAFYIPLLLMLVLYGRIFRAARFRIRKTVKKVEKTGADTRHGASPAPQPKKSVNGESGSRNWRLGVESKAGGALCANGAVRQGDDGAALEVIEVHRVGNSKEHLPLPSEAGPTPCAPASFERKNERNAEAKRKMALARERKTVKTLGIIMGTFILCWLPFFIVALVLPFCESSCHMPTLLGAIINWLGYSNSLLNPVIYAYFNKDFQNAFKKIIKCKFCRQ
As to the kind of experiment: Determination of Ki values at 5-HT1A receptor ([3H]-8-Hydroxy DPAT radioligand binding). The conditions noted are these: h5-HT1A, HEK293-EBNA, [3H]-8-Hydroxy DPAT 0.8 nM. On the procedure: Example-43: Determination of Ki Values at 5-HT1A Receptor
• Receptor source: Recombinant mammalian cells (HEK293-EBNA) • Radioligand: [^3H]-8-Hydroxy DPAT (200 Ci/mmol) • Final ligand concentration: 0.8 nM • Non-specific determinant: 0.1 mM U92016A • Reference compound: U92016A • Positive control: U92016A Incubation conditions: Reactions were carried out in buffer with pH 7.4 containing 50 mM Tris-HCl, 0.5 mM EDTA, 10 mM MgSO4, 0.1% Ascorbic acid for 2 h at RT. The reaction was terminated by rapid vacuum filtration onto the glass fiber filters. Radioactivity trapped onto the filters was determined and compared to the control values in order to ascertain any interactions of the test compound(s) with cloned human 5-HT1A receptor binding site.

The target in another assay is T2, human 5-HT2A receptor (Homo sapiens, UniProt P28223).
T2 construct: expressed in transfected cells; host or cells: CHO-K1
As to the kind of experiment: Determination of Ki values at 5-HT2A receptor ([3H]-Ketanserine radioligand binding). The conditions noted are these: h5-HT2A, CHO-K1, [3H]-Ketanserine 1.25 nM. On the procedure: Example-44: Determination of Ki Values at 5-HT2A Receptor
• Receptor source: Recombinant mammalian cells (CHO-K1) • Radioligand: [^3H]-Ketanserine (41.9 Ci/mmol) • Final ligand concentration: 1.25 nM • Non-specific determinant: 0.1 mM 1-Napthyl piperazine (1-NP) • Reference compound: 1-Napthyl piperazine (1-NP) • Positive control: 1-Napthyl piperazine (1-NP) Incubation conditions: Reactions were carried out in buffer with pH 7.4 containing 50 mM Tris-HCl, 4 mM CaCl2, 0.1% Ascorbic acid for 1 h at RT. The reaction was terminated by rapid vacuum filtration onto the glass fiber filters. Radioactivity trapped onto the filters was determined and compared to the control values in order to ascertain any interactions of the test compound(s) with cloned human 5-HT2A receptor binding site.

A further assay addresses T3, human SERT (Homo sapiens, UniProt P31645).
T3 construct: expressed in transfected cells; host or cells: HEK293
The assay is described as follows: Determination of Ki values at SERT receptor ([3H]-Citalopram SPA binding). The note with it: hSERT, HEK293, [3H]-Citalopram 2 nM. On the procedure:
Example-46: Determination of Ki Values at SERT Receptor
• Receptor source: Recombinant mammalian cells (HEK293) • Radioligand: [^3H]-Citalopram (80.8 Ci/mmol) • Final ligand concentration: 2 nM • Non-specific determinant: 0.1 mM Venlafaxine • Reference compound: Venlafaxine • Positive control: Venlafaxine Incubation conditions: Reactions were carried out in buffer with pH 7.4 containing 50 mM Tris-HCl, 150 mM NaCl, 5 mM KCl and Scintillation proximity assay (SPA) beads (0.1 mg/well) for 3 h at RT. Radioactivity proximal to SPA beads was determined by scintillation proximity assay and compared to the control values in order to ascertain any interactions of the test compound(s) with cloned human SERT receptor binding site.

The target in assay [1] is T4, human adrenergic α1B receptor (Homo sapiens, UniProt P35368).
T4 construct: expressed in transfected cells; host or cells: Chem-1
T4 sequence (P35368 1-520): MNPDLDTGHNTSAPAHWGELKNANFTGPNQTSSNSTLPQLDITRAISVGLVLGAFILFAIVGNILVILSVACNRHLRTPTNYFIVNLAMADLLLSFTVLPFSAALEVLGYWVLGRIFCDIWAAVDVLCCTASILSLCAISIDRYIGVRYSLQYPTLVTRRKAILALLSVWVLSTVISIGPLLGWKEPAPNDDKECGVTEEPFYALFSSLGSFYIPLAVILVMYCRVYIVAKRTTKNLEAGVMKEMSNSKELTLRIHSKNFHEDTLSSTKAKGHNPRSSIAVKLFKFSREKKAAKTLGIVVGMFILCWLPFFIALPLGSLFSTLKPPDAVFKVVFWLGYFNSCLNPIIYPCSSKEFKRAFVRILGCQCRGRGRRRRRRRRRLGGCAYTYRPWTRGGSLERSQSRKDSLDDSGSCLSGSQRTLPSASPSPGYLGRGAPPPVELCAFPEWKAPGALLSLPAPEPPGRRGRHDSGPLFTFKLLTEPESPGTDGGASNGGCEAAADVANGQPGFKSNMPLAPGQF
The assay is described as follows: Determination of Ki values at adrenergic α1B receptor ([3H]-Prazosin radioligand binding). The conditions noted are these: hα1B, Chem-1 cells, [3H]-Prazosin 1 nM; read-out: Ki Alpha1B. On the procedure:
Example-47: Determination of Ki Values at Adrenergic α1B Receptor
• Receptor source: Recombinant mammalian cells (Chem-1) • Radioligand: [^3H]-Prazosin (77.4 Ci/mmol) • Final ligand concentration: 1 nM • Non-specific determinant: 0.1 mM Prazosin • Reference compound: Prazosin • Positive control: Prazosin Incubation conditions: Reactions were carried out in buffer with pH 7.4 containing 67 mM Tris-HCl, 67 μM EDTA, […] for 1 h at RT. The reaction was terminated by rapid vacuum filtration onto the glass fiber filters. Radioactivity trapped onto the filters was determined and compared to the control values in order to ascertain any interactions of the test compound(s) with cloned human adrenergic α1B receptor binding site.

For assay [2], the target named is T5, human histamine H1 receptor (Homo sapiens, UniProt P35367).
T5 construct: expressed in transfected cells; host or cells: CHO-K1
The assay is described as follows: Determination of Ki values at histamine H1 receptor ([3H]-Pyrilamine SPA binding). The note with it: hH1, CHO-K1, [3H]-Pyrilamine 2 nM. On the procedure: Example-48: Determination of Ki values at Histamine H1 receptor
• Receptor source: Recombinant mammalian cells (CHO-K1) • Radioligand: [^3H]-Pyrilamine (20.7 Ci/mmol) • Final ligand concentration: 2 nM • Non-specific determinant: 0.1 mM Pyrilamine • Reference compound: Pyrilamine • Positive control: Pyrilamine Incubation conditions: Reactions were carried out in buffer with pH 7.4 containing 67 mM Tris-HCl and SPA beads (0.1 mg/well) for 1 h at 37° C. Radioactivity proximal to SPA beads was determined by scintillation proximity assay and compared to the control values in order to ascertain any interactions of the test compound(s) with cloned human histamine H1 receptor binding site.

This passage reports Ki results from patent publication US12338236B2, “Benzoisothiazole and benzoisoxazole compounds for the treatment of mental disorders” (SUVEN LIFE SCIENCES LIMITED, priority 2022, dated 2025).

Counter-ions that a name gives are not always drawn.

T2 sequence (P28223 whole entry): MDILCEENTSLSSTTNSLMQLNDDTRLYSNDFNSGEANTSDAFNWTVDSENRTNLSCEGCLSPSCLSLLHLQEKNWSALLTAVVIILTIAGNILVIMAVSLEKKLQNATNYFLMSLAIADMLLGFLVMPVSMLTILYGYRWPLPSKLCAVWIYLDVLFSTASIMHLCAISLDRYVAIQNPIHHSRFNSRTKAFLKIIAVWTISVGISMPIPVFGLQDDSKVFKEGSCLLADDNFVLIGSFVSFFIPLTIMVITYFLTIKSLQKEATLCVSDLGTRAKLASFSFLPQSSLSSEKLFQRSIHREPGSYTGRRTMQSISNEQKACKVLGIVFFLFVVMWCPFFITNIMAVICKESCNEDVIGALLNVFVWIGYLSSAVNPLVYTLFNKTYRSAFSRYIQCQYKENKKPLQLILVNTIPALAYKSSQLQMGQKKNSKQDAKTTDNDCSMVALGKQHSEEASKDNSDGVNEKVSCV
T5 sequence (P35367 whole entry): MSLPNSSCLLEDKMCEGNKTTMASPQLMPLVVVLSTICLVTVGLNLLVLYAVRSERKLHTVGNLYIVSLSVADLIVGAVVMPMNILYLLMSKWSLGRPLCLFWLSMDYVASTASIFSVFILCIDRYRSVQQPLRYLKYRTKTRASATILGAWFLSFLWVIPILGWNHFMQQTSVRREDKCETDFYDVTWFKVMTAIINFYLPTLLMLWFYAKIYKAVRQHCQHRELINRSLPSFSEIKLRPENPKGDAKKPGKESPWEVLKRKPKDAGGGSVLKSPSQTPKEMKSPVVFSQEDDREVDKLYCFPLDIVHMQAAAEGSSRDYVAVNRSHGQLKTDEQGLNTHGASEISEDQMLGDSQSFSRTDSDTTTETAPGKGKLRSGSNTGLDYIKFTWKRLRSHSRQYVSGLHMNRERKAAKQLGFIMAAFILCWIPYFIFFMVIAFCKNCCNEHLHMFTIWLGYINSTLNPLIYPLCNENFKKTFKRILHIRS
T3 sequence (P31645 whole entry): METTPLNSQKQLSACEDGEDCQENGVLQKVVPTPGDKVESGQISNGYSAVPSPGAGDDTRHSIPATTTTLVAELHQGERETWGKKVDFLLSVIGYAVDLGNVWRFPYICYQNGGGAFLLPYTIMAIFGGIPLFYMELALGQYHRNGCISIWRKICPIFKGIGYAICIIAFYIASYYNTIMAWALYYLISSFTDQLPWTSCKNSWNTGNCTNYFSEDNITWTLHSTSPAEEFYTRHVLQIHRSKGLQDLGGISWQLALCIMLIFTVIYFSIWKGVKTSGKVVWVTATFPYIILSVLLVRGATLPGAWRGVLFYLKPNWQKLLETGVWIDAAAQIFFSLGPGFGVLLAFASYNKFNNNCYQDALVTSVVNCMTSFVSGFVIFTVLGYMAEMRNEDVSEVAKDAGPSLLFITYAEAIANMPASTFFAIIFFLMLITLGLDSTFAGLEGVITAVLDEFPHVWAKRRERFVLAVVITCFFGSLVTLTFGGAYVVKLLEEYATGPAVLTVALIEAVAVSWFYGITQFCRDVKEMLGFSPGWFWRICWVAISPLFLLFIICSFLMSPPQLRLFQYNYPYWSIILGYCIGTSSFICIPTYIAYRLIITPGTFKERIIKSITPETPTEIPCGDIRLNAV

With `Cc1nnc(-c2csc(OCCCN3CCN(c4nsc5ccccc45)CC3)n2)o1` [Example-2, 3-(4-{3-[4-(5-Methyl-[1,3,4]oxadiazol-2-yl)-thiazol-2-yloxy]-propyl}-piperazin-1-yl)-benzo[d]isothiazole oxalate], the Ki – broadly, a dissociation constant, usually derived from enzyme kinetics or from competition with a known ligand – on human 5-HT1A receptor stood at 0.15 nM; on human 5-HT2A receptor, 0.24 nM; at human SERT it was 80 nM; in assay [1], 13.3 nM; in assay [2], 9.9 nM.
The like results for `Cc1noc(-c2csc(OCCCN3CCN(c4nsc5ccccc45)CC3)n2)n1` [compound 12, 3-(4-{3-[4-(3-Methyl-[1,2,4]oxadiazol-5-yl)-thiazol-2-yloxy]-propyl}-piperazin-1-yl)-benzo[d]isothiazole oxalate] were, in that order, 0.2 nM, 0.5 nM, 157 nM, 14.4 nM and 4.1 nM.
